From patent US11214803B2, “Modulators of YAP1 expression” (Ionis Pharmaceuticals, Inc., priority 2019, dated 2022)
Strand notation (5' to 3'): a small letter for the sugar, then the base; units joined by * are phosphorothioate-linked, units joined directly phosphodiester-linked; [ ] holds rarer units or linkages, { } end groups; capitals alone tell only the bases. k = constrained ethyl (cEt); [5mC] = 5-methylcytosine; d = 2'-deoxy (DNA)

System: Yap1 mRNA
Assay: Antisense inhibition of human Yap1 in A-431 cells by cEt gapmers, single dose (Example 3, RTS36584)
Type: cell-based
How it was run: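 Values are % untreated control: Yap1 mRNA by quantitative RT-PCR (RTS36584), normalized to total RNA by RiboGreen. Before RNA isolation, 5,000 A-431 cells per well were exposed ~48 h to 2,000 nM 16-mer cEt gapmer, delivered without transfection reagent.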

[1] = Table 29, Yap1 mRNA as percent of untreated control, 3-10-3 cEt gapmers targeting SEQ ID NO.: 1, and 2
[2] = Table 9, A-431 cells, 5,000 cells per well, free uptake, 2,000 nM, approximately 48 hours, RTS36584, normalized to RIBOGREEN, Yap1 mRNA relative to untreated control cells
[3] = Table 28, Yap1 mRNA as percent of untreated control, 3-10-3 cEt gapmers targeting SEQ ID NO.: 1, and 2
[4] = Table 8, A-431 cells, 5,000 cells per well, free uptake, 2,000 nM, approximately 48 hours, RTS36584, normalized to RIBOGREEN, Yap1 mRNA relative to untreated control cells
[5] = Table 26, Yap1 mRNA by 3-10-3 cEt gapmers targeting SEQ ID NO.: 1, and 2, percent of untreated control
[6] = Table 13, A-431 cells, 5,000 cells per well, free uptake, 2,000 nM modified oligonucleotide, approx. 48 hours, RTS36584, normalized to RIBOGREEN, Yap1 mRNA relative to untreated control cells
[7] = Table 35, Yap1 mRNA as percent of untreated control, 3-10-3 cEt gapmers targeting SEQ ID NO: 1 and 2, single dose
[8] = Table 12, A-431 cells, 5,000 cells per well, free uptake, 2,000 nM modified oligonucleotide, approx. 48 hours, RTS36584, normalized to RIBOGREEN, Yap1 mRNA relative to untreated control cells
[9] = Table 27, Yap1 mRNA by 3-10-3 cEt gapmers targeting SEQ ID NO.: 1, and 2, percent of untreated control

1075279 (antisense k[5mC]*kT*kA*dT*dA*d[5mC]*dT*dA*dA*d[5mC]*dA*dT*dT*k[5mC]*kA*k[5mC]) [compound 1075279]
YAP1 (% UTC) [1]: 52 % UTC

958503 (kA*kA*k[5mC]*d[5mC]*dA*dT*d[5mC]*d[5mC]*d[5mC]*dA*dA*dG*d[5mC]*kT*kA*k[5mC]; antisense) [Compound 958503]
YAP1 (% UTC) (Table 11, A-431 cells, 5,000 cells per well, free uptake, 2,000 nM oligonucleotide, approx. 48 hours, primer probe set RTS36584, Yap1 mRNA normalized to RIBOGREEN, percent of untreated control): 15 % UTC

958521 (kT*kT*k[5mC]*d[5mC]*dA*dA*dT*dT*d[5mC]*dA*dT*d[5mC]*dA*kG*kA*kT; antisense) [Compound 958521]
YAP1 (% UTC) [2]: 14 % UTC

1075374 (antisense kG*kA*kA*dA*dA*dT*dA*d[5mC]*dT*d[5mC]*d[5mC]*dT*d[5mC]*k[5mC]*kT*kA) [compound 1075374]
YAP1 (% UTC) [3]: 27 % UTC

958385 (antisense kG*k[5mC]*kG*d[5mC]*dG*d[5mC]*dG*d[5mC]*dA*dT*dT*dG*dT*kG*k[5mC]*kA) [Compound 958385]
YAP1 (% UTC) [4]: 115 % UTC

1075791 (k[5mC]*kT*kT*dT*dA*dT*d[5mC]*dA*dG*d[5mC]*d[5mC]*dA*dT*k[5mC]*kA*k[5mC]; antisense) [compound 1075791]
YAP1 (% UTC) [1]: 10 % UTC

1076012 (kA*kA*kT*dA*dT*dA*dA*dA*d[5mC]*dA*dA*dT*dA*kG*k[5mC]*kG; antisense) [compound 1076012]
YAP1 (% UTC) [5]: 34 % UTC

958745 (antisense kT*k[5mC]*k[5mC]*d[5mC]*dA*dG*d[5mC]*d[5mC]*dG*d[5mC]*dA*dT*dG*kG*k[5mC]*kT) [Compound 958745]
YAP1 (% UTC) [6]: 78 % UTC

958710 (antisense kA*kG*kG*dG*dA*dA*d[5mC]*d[5mC]*d[5mC]*dT*dT*dG*dG*k[5mC]*kT*kA) [Compound 958710]
YAP1 (% UTC) [6]: 77 % UTC

1075342 (antisense kA*k[5mC]*kT*dA*dA*dA*dA*dG*dG*dG*dA*dG*dT*kA*kG*kG) [compound 1075342]
YAP1 (% UTC) [3]: 87 % UTC

958368 (antisense kA*kT*k[5mC]*dT*dA*dG*d[5mC]*dT*dT*dG*dG*dT*dG*kG*k[5mC]*kA) [Compound 958368]
YAP1 (% UTC) [4]: 11 % UTC

1076270 (kT*kA*kA*d[5mC]*dA*dA*dT*dA*dG*dT*dA*dG*dA*k[5mC]*kG*kA; antisense) [compound 1076270]
YAP1 (% UTC) [3]: 28 % UTC

1074517 (kA*kA*kT*dG*d[5mC]*dA*dT*dA*d[5mC]*dA*dA*dA*dG*k[5mC]*kG*k[5mC]; antisense) [compound 1074517]
YAP1 (% UTC) [7]: 55 % UTC

1075532 (kA*k[5mC]*kT*dT*dA*dA*dT*dA*dG*dT*dT*dT*dA*kA*k[5mC]*k[5mC]; antisense) [compound 1075532]
YAP1 (% UTC) [5]: 121 % UTC

958744 (antisense kG*k[5mC]*kA*dT*dA*d[5mC]*dT*dG*dG*dT*dG*d[5mC]*d[5mC]*k[5mC]*k[5mC]*kA) [Compound 958744]
YAP1 (% UTC) [8]: 45 % UTC

1075884 (antisense kA*kT*kT*dA*dG*dT*dA*dA*dT*dG*dA*d[5mC]*dT*kA*kA*k[5mC]) [compound 1075884]
YAP1 (% UTC) [5]: 116 % UTC

958421 (antisense k[5mC]*kT*k[5mC]*d[5mC]*dG*dT*dG*dG*dT*dG*dA*dT*d[5mC]*k[5mC]*k[5mC]*kA) [Compound 958421]
YAP1 (% UTC) [4]: 13 % UTC

1075471 (antisense kA*kG*k[5mC]*d[5mC]*dA*dA*dT*dA*dA*dG*dT*dT*dA*kT*k[5mC]*kA) [compound 1075471]
YAP1 (% UTC) [1]: 55 % UTC

1074861 (kT*kG*k[5mC]*dT*d[5mC]*dT*dT*dA*d[5mC]*dA*dT*d[5mC]*dT*kA*kA*kA; antisense) [compound 1074861]
YAP1 (% UTC) [9]: 23 % UTC

1076212 (k[5mC]*kA*kA*dA*dT*dT*dT*dA*dT*dA*dT*dG*d[5mC]*kT*k[5mC]*k[5mC]; antisense) [compound 1076212]
YAP1 (% UTC) (Table 34, Yap1 mRNA as percent of untreated control, 3-10-3 cEt gapmers targeting SEQ ID NO: 1 and 2, single dose): 15 % UTC

1076302 (kA*kA*kT*dA*dA*dG*d[5mC]*d[5mC]*dT*d[5mC]*dA*d[5mC]*d[5mC]*kT*kT*kT; antisense) [compound 1076302]
YAP1 (% UTC) [3]: 74 % UTC

1074252 (antisense kG*kG*kA*d[5mC]*dA*dG*d[5mC]*dA*dT*dG*dG*d[5mC]*d[5mC]*kT*kT*k[5mC]) [compound 1074252]
YAP1 (% UTC) [5]: 50 % UTC

958712 (antisense kT*kT*kA*dT*dA*dT*dA*dG*dG*dT*dT*dA*d[5mC]*kA*kG*kA) [Compound 958712]
YAP1 (% UTC) (Table 10, A-431 cells, 5,000 cells per well, free uptake, 2,000 nM oligonucleotide, approx. 48 hours, primer probe set RTS36584, Yap1 mRNA normalized to RIBOGREEN, percent of untreated control): 52 % UTC

958639 (antisense kG*kT*kT*dA*dT*dG*dG*dG*dT*dG*d[5mC]*dT*dT*kT*kT*k[5mC]) [Compound 958639]
YAP1 (% UTC) [8]: 18 % UTC

1074805 (kG*kT*kA*dG*d[5mC]*dA*dA*dA*dG*dT*d[5mC]*dA*d[5mC]*kT*kT*k[5mC]; antisense) [compound 1074805]
YAP1 (% UTC) [7]: 9 % UTC

958401 (antisense kA*kG*kT*dT*dA*dT*dT*d[5mC]*dA*dG*d[5mC]*dA*dG*k[5mC]*kT*kT) [Compound 958401]
YAP1 (% UTC) [4]: 19 % UTC

1075660 (antisense k[5mC]*kA*kA*dA*dG*dT*dA*dA*dA*dA*dA*dA*d[5mC]*kG*kG*kT) [compound 1075660]
YAP1 (% UTC) [5]: 72 % UTC

1076364 (antisense k[5mC]*k[5mC]*kA*dT*dA*dA*dA*dA*dG*dT*d[5mC]*d[5mC]*dA*k[5mC]*kT*kA) [compound 1076364]
YAP1 (% UTC) [5]: 30 % UTC

958551 (k[5mC]*kT*k[5mC]*d[5mC]*dT*dG*dT*dA*dG*dA*d[5mC]*dA*d[5mC]*kA*kT*kA; antisense) [Compound 958551]
YAP1 (% UTC) [2]: 5 % UTC

1075469 (antisense kT*kG*kA*dT*dA*dT*dA*dA*dT*dG*dA*d[5mC]*d[5mC]*kA*kA*kG) [compound 1075469]
YAP1 (% UTC) [9]: 25 % UTC

958519 (k[5mC]*k[5mC]*k[5mC]*d[5mC]*dT*dA*dG*dG*d[5mC]*dA*d[5mC]*dT*dA*kT*k[5mC]*k[5mC]; antisense) [Compound 958519]
YAP1 (% UTC) [8]: 20 % UTC

1075951 (antisense k[5mC]*kA*k[5mC]*dG*dG*dA*dA*dG*dA*dG*d[5mC]*dT*dT*kG*k[5mC]*kA) [compound 1075951]
YAP1 (% UTC) [1]: 34 % UTC

1075541 (kG*k[5mC]*kT*d[5mC]*dA*dA*dA*dA*d[5mC]*dT*dG*dA*d[5mC]*kA*kT*kA; antisense) [compound 1075541]
YAP1 (% UTC) [7]: 47 % UTC

958469 (antisense kG*kG*k[5mC]*dT*d[5mC]*dT*dA*dT*dA*dA*d[5mC]*d[5mC]*dA*kT*kG*kT) [Compound 958469]
YAP1 (% UTC) [8]: 17 % UTC

958511 (k[5mC]*kA*k[5mC]*dT*dA*d[5mC]*d[5mC]*dA*d[5mC]*dA*d[5mC]*dT*dA*kT*kT*kA; antisense) [Compound 958511]
YAP1 (% UTC) [2]: 31 % UTC

958417 (antisense kA*k[5mC]*kG*dG*dA*dT*dA*dA*dA*dA*dA*dT*dT*kA*k[5mC]*kT) [Compound 958417]
YAP1 (% UTC) [4]: 85 % UTC

958619 (antisense kT*kG*kG*dG*dT*d[5mC]*dT*dA*dG*d[5mC]*d[5mC]*dA*dA*kG*kA*kG) [Compound 958619]
YAP1 (% UTC) [8]: 71 % UTC

1074156 (kA*kG*kG*dG*d[5mC]*dT*dA*d[5mC]*dG*d[5mC]*d[5mC]*d[5mC]*dG*kG*kA*k[5mC]; antisense) [compound 1074156]
YAP1 (% UTC) [5]: 96 % UTC

958416 (antisense kG*k[5mC]*kT*dG*dT*dG*dT*dA*dG*dG*d[5mC]*dT*dG*kA*k[5mC]*kT) [Compound 958416]
YAP1 (% UTC) [4]: 36 % UTC
